pIC50: −log10 of the molar value. Several values for one entry are separate records, joined by “and”; a condition that tells them apart may be missing. Identical values can stand only once.
System: 922993-354-T-J3-PDC complex spheroids, viability
Assay: Anticancer human tumor 922993-354-T-J3-PDC patient-derived endometrial carcinoma cell line growth inhibition [GQUAD]
Details: for viability, T/C: stronger effect = lower value
From the text: DNA G-quadruplex Stabilizer Agents in Combinations in Complex Spheroids
A high-throughput screen of multi-cell type tumor spheroids was designed to identify active combinations of DNA G-quadruplex stabilizer agents and targeted small molecules. Complex spheroids include a stromal component modeled by human endothelial cells (HUVEC) and fibroblasts modeled by human mesenchymal stem cells (MSCs). The concentration ranges selected for each drug and investigational agent were based upon clinically achievable concentrations if the clinical Cmax of the agent was known.
Compounds. The drugs and investigational agents: pidnarulex (CX-5461; NSC782164), APTO-253 (NSC789042), BRACO-19 (NSC847499), peposertib (NSC802822), ceralasertib (NSC780249), elimusertib (NSC800525), camonsertib (NSC841442), AZD-1390 (NSC803789), olaparib (NSC753686), talazoparib (NSC767125), ART-558 (NSC835418), sotorasib (NSC818433), MRTX-1133 (NSC836407), SN-38 (NSC673596), topotecan (NSC609699), etoposide (NSC141540), doxorubicin (NSC123127), gemcitabine (NSC613327), 5-fluorouracil (NSC19893), paclitaxel (NSC125973), vemurafenib (NSC761431), panobinostat (NSC761190), R-306465 (JNJ-16241199; NSC773264), adavosertib (NSC754352), TP-3654 (NSC805149), carboplatin (NSC241240), KSQ-4279 (NSC840948), and staurosporine (NSC755774) were obtained from the National Cancer Institute (NCI) Developmental Therapeutics Program Chemical Repository (34). The FDA-approved anticancer drug set is available from the NCI Developmental Therapeutics Program. […] The stock solutions were prepared in dimethyl sulfoxide (DMSO, Sigma-Aldrich, St. Louis, MO, cat. D2650) at 800-fold the tested concentration and stored at -70 degrees C prior to their use. All drugs and investigational agents were tested over a range starting from a high concentration at or near the clinical Cmax and decreasing in half-log increments. If the clinical Cmax for an agent had not been determined, the highest concentration tested was 10 microM.
2.3 Cell Culture. All cells were maintained in an incubator at 37 degrees C and 5% CO2 with 95% humidity. The PDC lines were cultured according to standard operating procedures established by the NCI PDMR. All PDCs were thawed and cultured in Matrigel-coated flasks prepared with a working solution of 1X Ham's F-12 nutrient mix, without supplementation (Invitrogen, cat. 11765054), 100 U/mL penicillin-streptomycin (Invitrogen, cat. 15140122), and 2.5% Matrigel (Corning Inc., cat. 354248) for the first three passages. The 857933-349-R-J2-PDC line was cultured in 6C/Colon 1B media, which includes advanced DMEM/F-12 (Thermo Fisher Scientific, cat. 12634028), 10 mM HEPES (Thermo Fisher Scientific, cat. 15630080), 1X GlutaMAX supplement (Thermo Fisher Scientific, cat. 35050061), 0.1 mg/mL primocin (InvivoGen, cat. ant-pm-2), 10% defined fetal bovine serum, heat inactivated (HyClone Laboratories Inc., cat. SH30070.03HI), 50% L-WRN conditioned media (ATCC, cat. CRL-3276), 1.25 mM N-Acetyl-L-cysteine (Sigma-Aldrich, cat. A9165), 10 mM nicotinamide (Sigma-Aldrich, cat. N0636), 1X B-27 supplement (Thermo Fisher Scientific, cat. 17504044), 1X N-2 supplement (Thermo Fisher Scientific, cat. 17502048), 10 microM Y-27632 dihydrochloride (Tocris Bioscience, cat. 1254), and 50 ng/mL human EGF recombinant protein (Thermo Fisher Scientific, cat. PHG0311). The 485176-168-R4-J1-PDC line was cultured in Panc media, which includes all 6C/Colon 1B media components plus 100 ng/mL human FGF-10 (Thermo Fisher Scientific, cat. 100-26), 500 nM SB-431542 (Selleckchem, cat. S1067), and gastrin (Tocris, cat. 3006).
[…]
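Also: spheroids exposed to compounds for seven days.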
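For viability, T/C in this document: 100% = DMSO vehicle control viability.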

| SMILES | viability, T/C (compound 0.0316 µM) | viability, T/C (compound 0.1 µM) | viability, T/C (compound 0.316 µM) | viability, T/C (compound 1 µM) | viability, T/C (compound 3.16 µM) | viability, T/C (compound 10 µM) | pIC50 (curve of compound) | pIC50 (compound alone, run of 03/18/2024) | pIC50 (compound alone, run of 03/26/2024) | viability, T/C (compound 0.000999 µM) | viability, T/C (compound 0.00316 µM) | viability, T/C (compound 0.00999 µM) | viability, T/C (compound 0.0999 µM) |
| --- | --- | --- | --- | --- | --- | --- | --- | --- | --- | --- | --- | --- | --- |
| COc1cc(C2c3cc4c(cc3C(OC3OC5COC(C)OC5C(O)C3O)C3COC(=O)C23)OCO4)cc(OC)c1O (stereo not given) | 88.4% and 94.8% and 88.6% | 89% and 80.4% and 92% | 76.1% and 86.3% and 92.8% | 89.5% and 99.4% and 80.7% | 74.5% and 95.4% and 76.1% | 56.4% and 62.6% and 37% | < 5.00 and 5.17 | – | – | – | – | – | – |
| COc1ccc([C@@H](O)c2cc(-c3ncnc4cc(N5CCOCC5)ccc34)c(F)cc2Cl)nn1 | 93.2% and 109% and 98.5% | 99.4% and 61.7% and 94.8% | 103% and 87% and 92.8% | 93.4% and 83.4% and 86.5% | 92% and 94.4% and 85% | 69.3% and 69% and 52.9% | < 5.00 | – | – | – | – | – | – |
| COc1cccc2c1C(=O)c1c(O)c3c(c(O)c1C2=O)CC(O)(C(=O)CO)CC3OC1CC(N)C(O)C(C)O1 (stereo not given) | 101% and 78% and 112% | 85.8% and 98% and 78.3% | 83.7% and 94.3% and 93% | 108% and 71.4% and 89.4% | 68.2% and 64.5% and 86% | 57.2% and 28.9% and 43.5% | < 5.00 and 5.32 and 5.07 | – | – | – | – | – | – |
| COc1ncnc(C2CC2)c1-c1ncc2cnn(Cc3ccc(-c4nc(C(F)(F)F)cn4C(C)C)cc3)c2n1 | 91.6% and 114% and 86.8% | 87.8% and 92.6% and 89.9% | 101% and 104% and 102% | 87.8% and 99.7% and 99.6% | 110% and 85.1% and 69.7% | 95.9% and 87.4% and 81.4% | < 5.00 | – | – | – | – | – | – |
| Cc1[nH]c2ccc(F)cc2c1-c1nc2c3cccnc3c3ncccc3c2[nH]1 | – | – | – | – | – | 106% [middle of 12 runs] | – | < 5.00 | < 5.00 | – | – | – | – |
| Cc1[nH]c2ccccc2c1CCNCc1ccc(/C=C/C(=O)NO)cc1 | 101% and 89% and 85.7% | – | 57.2% and 55.4% and 52.3% | – | – | – | < 6.50 | – | – | 83.6% and 110% and 88.9% | 102% and 93.8% and 74% | 70% and 75.6% and 89.6% | 63.2% and 87.7% and 68.7% |
| Cc1cccc(N(C)C(=O)C2C(O)CCN2c2nc(C)cc(C(F)(F)F)c2C#N)c1 (stereo not given) | 90.6% and 93.6% and 97.1% | 106% and 90.6% and 105% | 83.6% and 87.3% and 122% | 118% and 86.8% and 91.9% | 122% and 71.7% and 102% | 110% and 94.2% and 78.3% | < 5.00 | – | – | – | – | – | – |
| Cc1cnc(CNC(=O)c2c(=O)c3ccc(N4CCCN(C)CC4)nc3n3c2sc2ccccc23)cn1 | 83.9% [middle of 12 runs] | 66% [middle of 12 runs] | – | 53.7% [middle of 12 runs] | 49.3% [middle of 12 runs] | 46.9% [middle of 12 runs] | – | – | – | – | – | – | – |
| Cn1ncnc1[C@H]1c2n[nH]c(=O)c3cc(F)cc(c23)N[C@@H]1c1ccc(F)cc1 | 87.9% and 74.9% and 91.4% | – | 54.5% and 62% and 59.1% | – | – | – | < 6.50 | – | – | 93.3% and 98.8% and 108% | 101% and 78.7% and 113% | 76.9% and 101% and 85.8% | 68.9% and 72% and 78.9% |
| Nc1ccn(C2OC(CO)C(O)C2(F)F)c(=O)n1 (stereo not given) | 22.6% and 12.1% and 26.3% | 22% and 11.3% and 23.6% | 28% and 12.5% and 23.7% | 24.6% and 13.1% and 30.6% | 23.4% and 12.9% and 18.8% | 20.9% and 11.3% and 20.8% | > 7.50 | – | – | – | – | – | – |
| O=C(NO)c1cnc(N2CCN(S(=O)(=O)c3ccc4ccccc4c3)CC2)nc1 | 98.1% and 88.5% and 95.5% | 71.3% and 68.2% and 82.4% | 56% and 62% and 55.4% | 36.7% and 32.2% and 32% | 3.07% and 3.39% and 4.12% | 0.53% (2×) and 0.58% | 6.42 and 6.35 and 6.37 | – | – | – | – | – | – |
| O=C(c1cc(Cc2n[nH]c(=O)c3ccccc23)ccc1F)N1CCN(C(=O)C2CC2)CC1 | 86.5% and 123% and 91.1% | 93% and 92.2% and 94.4% | 102% and 98.1% and 105% | 86.7% and 85.6% and 86.3% | 88.2% and 92.5% and 92.1% | 99.3% and 77.2% and 85.4% | < 5.00 | – | – | – | – | – | – |
| O=c1[nH]cc(F)c(=O)[nH]1 | 104% and 107% and 113% | 98.3% and 97.9% and 83.3% | 99.5% and 94.9% and 75% | 76% and 72.9% and 90.1% | 81.2% and 74.1% and 57% | 47.9% and 65.3% and 16.6% | < 5.00 and 5.41 | – | – | – | – | – | – |

From PubChem BioAssay AID2060489 (Molecular Pharmacology Branch, DTP, NCI, 2025)
